What was measured:
[1] = target: Sigma non-opioid intracellular receptor 1 (Cavia porcellus) (UniProt Q60492); test: Binding affinity was measured on Sigma receptor type 1 with guinea pig membranes and [3H]- pentazocine as ligand.
[2] = target: Sigma-2 receptor (TMEM97) (Rattus norvegicus); test: Binding affinity was measured on Sigma receptor type 2 with rat liver membranes and [3H]- DTG as ligand.

Sigma non-opioid intracellular receptor 1 (Cavia porcellus), sequence (Q60492 whole entry, looked up): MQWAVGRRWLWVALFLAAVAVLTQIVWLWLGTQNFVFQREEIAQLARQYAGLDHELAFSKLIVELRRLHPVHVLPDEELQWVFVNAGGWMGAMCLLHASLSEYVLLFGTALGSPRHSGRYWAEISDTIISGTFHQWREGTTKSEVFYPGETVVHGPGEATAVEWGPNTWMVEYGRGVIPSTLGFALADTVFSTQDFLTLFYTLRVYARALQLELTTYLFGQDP

Ki [1] | Ki [2] | Structure (SMILES)
5190 nM | 115000 nM | CCN(CC)CCNC(=O)c1cc(I)c(NC(C)=O)cc1OC [4-acetamido-N-(2-(diethylamino)ethyl)-5-iodo-2-methoxybenzamide]
278 nM | 2350 nM | CCN(CC)CCNC(=O)c1cc(Br)c(N)c(I)c1OC [4-Amino-5-bromo-N-(2-diethylamino-ethyl)-3-iodo-2-methoxy-benzamide]
484 nM | 21400 nM | CCN(CC)CCNC(=O)c1cc(I)c(N)cc1OC
249 nM | 6520 nM | CCN(CC)CCNC(=O)c1ccc(OC)c(I)c1 [N-(2-Diethylamino-ethyl)-3-iodo-4-methoxy-benzamide (IMBA)]
92 nM | 1020 nM | CCN(CC)CCNC(=O)c1cc(I)ccc1OC [N-(2-Diethylamino-ethyl)-5-iodo-2-methoxy-benzamide]
